Reference: US12649733B2, “3,6-diamino-pyridazin-3-yl derivatives, pharmaceutical compositions containing them and their uses as pro-apoptotic agents” (LES LABORATOIRES SERVIER, priority 2019, dated 2026)

How the values were obtained:
BCLXL = BCLXL (Homo sapiens, UniProt Q07817, V10N/V9A); experiment: Fluorescence polarisation assay (PUMA-based probe displacement); format: binding; also: 20 nM protein, 10 nM fluorescent probe
Procedure: Fluorescence polarization measures the rotation of a fluorescing species in solution, the larger the molecule the more polarized the fluorescence emission.
[[…]] (GST UniProtKB® primary accession number P08515 and BCLXL UniProtKB® primary accession number Q07817-1),
resulting in an increase in anisotropy. If a compound is added which competitively binds to the same site as the probe, thereby releasing it, anisotropy decreases due to the increased amount of free probe.
An 11-point serial dilution of each compound was prepared in DMSO, the final buffer conditions were 10 mM 4-(2-hydroxyethyl)-1-piperazineethanesulfonic acid [HEPES], 150 mM NaCl, 0.05% Tween 20, pH 7.4 and 5% DMSO. The final protein concentration in the assay was 20 nM with the fluorescent probe present at 10 nM. The experiments were incubated for 2 hours at 23° C. before fluorescence polarization was measured on a Biotek SynergyNeo plate reader (Excitation 485 nm, emission 525 nm, parallel and perpendicular reads). […] The KI values were determined from the IC50 values according to Cer et al, Nucleic Acids Res, 2009, Jul. 1: 37(WebServer issue): W441-W445.

H146 cells = experiment: H146 cell viability, MTT assay; format: cell-based; conditions: Homo sapiens, NCI-H146, 48 h, 48 h exposure
Procedure: (§1) MTT colorimetric assay is based on the mitochondrial reduction of tetrazolium salt by living cells. The viable cell number is proportional to the production of formazan salts, which can be read spectrophotometrically at 540 nm.
(§2) MOLT-4 and H146 cells were purchased from ATCC and cultivated in RPMI 1640 supplemented with 10% heat inactivated fetal bovine serum, penicillin (100 IU/ml), streptomycin (100 μg/ml) and L-glutamine (2 mM). Cells were cultured at 37° C. in a humidified atmosphere containing 5% CO2. Cells were seeded in 96 microwell plates (150 μL per well) and exposed to the compounds for 48 h (3.16 fold serially diluted; 9 concentrations each, triplicates). At the end of incubation time, 15 μL of MTT solution (5 mg/ml) were added per well and the cells were incubated for another 4 h. Then, 100 μL of 10% Sodium Dodecyl Sulfate (SDS)/HCl 10 mM were added per well and the plate was incubated overnight, before measurement of optical density at 540 nm. IC50s were calculated using standard four-parametric curve fitting.

MOLT-4 cells = experiment: MOLT-4 cell viability, MTT assay; format: cell-based; conditions: Homo sapiens, MOLT-4, 48 h, 48 h exposure
Procedure: as §1, §2

BCLXL, sequence (Q07817 with tags, fused parts or gaps V9A/V10N): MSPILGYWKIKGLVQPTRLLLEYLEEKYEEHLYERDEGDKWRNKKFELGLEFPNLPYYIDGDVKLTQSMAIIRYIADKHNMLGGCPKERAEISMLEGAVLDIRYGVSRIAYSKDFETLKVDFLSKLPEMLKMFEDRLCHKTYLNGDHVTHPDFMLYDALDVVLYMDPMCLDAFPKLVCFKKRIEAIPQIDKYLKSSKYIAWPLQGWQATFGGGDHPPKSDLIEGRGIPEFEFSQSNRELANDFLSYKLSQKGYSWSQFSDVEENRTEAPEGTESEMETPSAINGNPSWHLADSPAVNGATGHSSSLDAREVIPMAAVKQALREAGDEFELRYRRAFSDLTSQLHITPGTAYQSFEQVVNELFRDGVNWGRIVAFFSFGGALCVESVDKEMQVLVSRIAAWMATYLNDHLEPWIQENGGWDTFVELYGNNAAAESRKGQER

Row | Structure (SMILES) | Ki (BCLXL) [nM] | IC50 (H146 cells) [nM] | IC50 (MOLT-4 cells) [nM]
1 | CC(C)c1cc(Nc2nc(C(=O)O)cs2)nnc1Nc1nc2ccccc2s1 [Example 5, 2-({6-[(1,3-Benzothiazol-2-yl)amino]-5-(propan-2-yl)pyridazin-3-yl}amino)-1,3-thiazole-4-carboxylic acid] | 180 | 8210 | 
2 | Cc1c(Nc2nc(C(=O)O)cs2)nnc(Nc2nc3ccccc3s2)c1C(C)C [Example 10, 2-({6-[(1,3-Benzothiazol-2-yl)amino]-4-methyl-5-(propan-2-yl)pyridazin-3-yl}amino)-1,3-thiazole-4-carboxylic add] | 410 | 8310 | 
3 | C=Cc1sc(N(C)c2cc(C)c(Nc3nc4ccccc4s3)nn2)nc1C(=O)O [Example 106, 2-({6-[(1,3-benzothiazol-2-yl)amino]-5-methylpyridazin-3-yl}(methyl)amino)-5-ethenyl-1,3-thiazole-4-carboxylic acid] | 27 | > 15000 | > 15000
4 | Cc1c(Nc2cccc(C(=O)O)n2)nnc(Nc2nc3ccccc3s2)c1C [Example 2, 6-({6-[(1,3-Benzothiazol-2-yl)amino]-4,5-dimethylpyridazin-3-yl}amino)pyridine-2-carboxylic acid] | 330 | 12500 | 
5 | O=C(O)c1cccc(Nc2nnc(Nc3nc4ccccc4s3)c3c2CCC3)n1 [Example 25, 6-[[4-(1,3-benzothiazol-2-ylamino)-6,7-dihydro-5H-cyclopenta[d]pyridazin-1-yl]amino]pyridine-2-carboxylic acid] | 990 | 3180 | 7130
6 | Cc1cc(N(C)c2nc(C(=O)O)c(-c3cnn(CC45CC6CC(CC(C6)C4)C5)c3C)s2)nnc1Nc1nc2ccccc2s1 [Example 40, 5-{1-[(Adamantan-1-yl)methyl]-5-methyl-1H-pyrazol-4-yl}-2-({6-[(1,3-benzothiazol-2-yl)amino]-5-methylpyridazin-3-yl}(methyl)amino)-1,3-thiazole-4-carboxylic acid] | 20 | 3800 | 1490
7 | CCN(c1cc(C)c(Nc2nc3ccccc3s2)nn1)c1nc(C(=O)O)cs1 [Example 37, 2-({6-[(1,3-Benzothiazol-2-yl)amino]-5-methylpyridazin-3-yl}(ethyl)amino)-1,3-thiazole-4-carboxylic acid] | 15 | 11000 | 7390
8 | Cc1cc(N(C)c2nc(C(=O)O)c(N3CC[C@H](Oc4ccccc4)C3)s2)nnc1Nc1nc2ccccc2s1 [Example 77, 2-({6-[(1,3-Benzothiazol-2-yl)amino]-5-methylpyridazin-3-yl}(methyl)amino)-5-[(3S)-3-phenoxypyrrolidin-1-yl]-1,3-thiazole-4-carboxylic acid] | 110 | ≥ 14900 | 6590
9 | Cc1c(Nc2nc(C(=O)O)cs2)nnc(Nc2nc3cc(F)c(F)cc3s2)c1C [Example 57, 2-[[6-[(5,6-Difluoro-1,3-benzothiazol-2-yl)amino]-4,5-dimethyl-pyridazin-3-yl]amino]thiazole-4-carboxylic acid] | 350 | 13400 | > 15000
10 | CCc1c(Nc2nc3ccccc3s2)nnc(Nc2nc(C(=O)O)cs2)c1C [Example 16, 2-({6-[(1,3-Benzothiazol-2-yl)amino]-5-ethyl-4-methylpyridazin-3-yl}amino)-1,3-thiazole-4-carboxylic acid] | 52 | 8040 | 
11 | Cc1c(Nc2nc3ccccc3s2)nnc(Nc2nc(C(=O)O)cs2)c1C(C)C [Example 8, 2-({6-[(1,3-Benzothiazol-2-yl)amino]-5-methyl-4-(propan-2-yl)pyridazin-3-yl}amino)-1,3-thiazole-4-carboxylic acid] | 87 | 10500 | 
12 | Cc1c(Nc2nc3ccccc3s2)nnc(Nc2nc(C(=O)O)cs2)c1CO [Example 18, 2-({6-[(1,3-Benzothiazol-2-yl)amino]-4-(hydroxymethyl)-5-methylpyridazin-3-yl}amino)-1,3-thiazole-4-carboxylic acid] | 78 | > 15000 | 
13 | COCCCC1(Cn2ncc(-c3sc(N(C)c4cc(C)c(Nc5nc6ccccc6s5)nn4)nc3C(=O)O)c2C)CCCCCCC1 [Example 43, 2-({6-[(1,3-Benzothiazol-2-yl)amino]-5-methylpyridazin-3-yl}(methyl)amino)-5-(1-{[1-(3-methoxypropyl)cyclooctyl]methyl}-5-methyl-1H-pyrazol-4-yl)-1,3-thiazole-4-carboxylic acid] | 19 |  | 
14 | Cc1cc(N(CC(O)CO)c2nc(C(=O)O)cs2)nnc1Nc1nc2ccccc2s1 (stereo not shown) [Example 103, 2-[[6-(1,3-Benzothiazol-2-ylamino)-5-methyl-pyridazin-3-yl]-(2,3-dihydroxypropyl)amino]thiazole-4-carboxylic acid] | 14 |  | 
15 | Cc1cc(N(C)c2nc(C(=O)O)c(N3CC[C@@H](Oc4ccccc4)C3)s2)nnc1Nc1nc2ccccc2s1 [Example 79, 2-({6-[(1,3-Benzothiazol-2-yl)amino]-5-methylpyridazin-3-yl}(methyl)amino)-5-[(3R)-3-phenoxypyrrolidin-1-yl]-1,3-thiazole-4-carboxylic acid] | 92 |  | 
16 | Cc1cc(N(C)c2nc(C(=O)O)c(N3CCCCC3)s2)nnc1Nc1nc2ccccc2s1 [Example 80, 2-({6-[(1,3-Benzothiazol-2-yl)amino]-5-methylpyridazin-3-yl}(methyl)amino)-5-(piperidin-1-yl)-1,3-thiazole-4-carboxylic acid] | 80 |  | 
17 | Cc1cc(N(C)c2nc(C(=O)O)c(N3CCC(Oc4ccccc4)CC3)s2)nnc1Nc1nc2ccccc2s1 [Example 81, 2-({6-[(1,3-Benzothiazol-2-yl)amino]-5-methylpyridazin-3-yl}(methyl)amino)-5-(4-phenoxypiperidin-1-yl)-1,3-thiazole-4-carboxylic acid] | 16 |  | 
18 | Cc1cc(N(C)c2nc(C(=O)O)c(C3CCN(C)CC3)s2)nnc1Nc1nc2ccccc2s1 [Example 99, 2-({6-[(1,3-Benzothiazol-2-yl)amino]-5-methylpyridazin-3-yl}(methyl)amino)-5-(1-methylpiperidin-4-yl)-1,3-thiazole-4-carboxylic acid] | 2400 |  | 
19 | Cc1c(Nc2nc(C(=O)O)c(CCCOc3ccc(CCCN(C)C)cc3F)s2)nnc(Nc2nc3ccccc3s2)c1C [Example 22, 2-({6-[(1,3-Benzothiazol-2-yl)amino]-4,5-dimethylpyridazin-3-yl}amino)-5-(3-{4-[3-(dimethylamino)propyl]-2-fluorophenoxy}propyl)-1,3-thiazole-4-carboxylic acid] | 2.9 | 2130 | 
20 | Cc1cc(N(CCCC(=O)O)c2nc(C(=O)O)cs2)nnc1Nc1nc2ccccc2s1 [Example 158, 2-({6-[(1,3-Benzothiazol-2-yl)amino]-5-methylpyridazin-3-yl}(3-carboxypropyl)amino)-1,3-thiazole-4-carboxylic acid] | 43 |  | 
21 | Cc1c(Nc2nc(C(=O)O)c(CCCOc3ccc(C(=O)N(C)C)cc3F)s2)nnc(Nc2nc3ccccc3s2)c1C [Example 14, 2-({6-[(1,3-Benzothiazol-2-yl)amino]-4,5-dimethylpyridazin-3-yl}amino)-5-{3-[4-(dimethylcarbamoyl)-2-fluorophenoxy]propyl}-1,3-thiazole-4-carboxylic acid] | 3.2 | 2110 | 
22 | Cc1cc(Nc2nc3ccccc3s2)nnc1Nc1nc(C(=O)O)cs1 [Example 11, 2-({6-[(1,3-Benzothiazol-2-yl)amino]-4-methylpyridazin-3-yl}amino)-1,3-thiazole-4-carboxylic acid] | 600 |  | 
23 | CCc1c(Nc2nc(C(=O)O)cs2)nnc(Nc2nc3ccccc3s2)c1C [Example 15, 2-({6-[(1,3-Benzothiazol-2-yl)amino]-4-ethyl-5-methylpyridazin-3-yl}amino)-1,3-thiazole-4-carboxylic acid] | 37 | > 15000 | 
24 | CC(C)c1cc(Nc2nc3ccccc3s2)nnc1Nc1nc(C(=O)O)cs1 [Example 6, 2-({6-[(1,3-Benzothiazol-2-yl)amino]-4-(propan-2-yl)pyridazin-3-yl}amino)-1,3-thiazole-4-carboxylic acid] | 490 | > 44900 | 
25 | Cc1c(Nc2nc3ccccc3s2)nnc(Nc2nc(C(=O)O)cs2)c1C1CC1 [Example 19, 2-({6-[(1,3-Benzothiazol-2-yl)amino]-4-cyclopropyl-5-methylpyridazin-3-yl}amino)-1,3-thiazole-4-carboxylic acid] | 30 | ≥ 12800 | 
26 | Cc1c(Nc2nc(C(=O)O)cs2)nnc(Nc2nc3c(C)cccc3s2)c1C [Example 48, 2-[[4,5-dimethyl-6-[(4-methyl-1,3-benzothiazol-2-yl)amino]pyridazin-3-yl]amino]thiazole-4-carboxylic acid] | 1900 |  | 
